The target of one data set is T1, rP2X3 (Rattus norvegicus, UniProt P49654).
T1 construct: expressed in transfected cells; host or cells: HEK293
T1 sequence (P49654 1-397): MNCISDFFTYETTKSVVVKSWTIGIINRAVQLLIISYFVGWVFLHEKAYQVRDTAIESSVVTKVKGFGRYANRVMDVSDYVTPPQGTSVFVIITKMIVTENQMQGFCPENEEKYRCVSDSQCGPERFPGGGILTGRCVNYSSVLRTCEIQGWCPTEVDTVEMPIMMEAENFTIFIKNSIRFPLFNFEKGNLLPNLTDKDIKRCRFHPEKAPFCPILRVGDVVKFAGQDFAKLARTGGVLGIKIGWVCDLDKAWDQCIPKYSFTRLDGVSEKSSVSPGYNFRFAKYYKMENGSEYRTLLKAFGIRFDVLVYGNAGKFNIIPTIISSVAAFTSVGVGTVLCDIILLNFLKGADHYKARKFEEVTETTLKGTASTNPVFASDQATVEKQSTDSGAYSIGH
The data set is described as follows: Inhibitory activity against P2X3 in rats (electrophysiological method). Type of data set: cell-based.

In the next data set the target is T2, gpP2X3 (Cavia porcellus, UniProt H0VWY5).
T2 sequence (H0VWY5 1-391): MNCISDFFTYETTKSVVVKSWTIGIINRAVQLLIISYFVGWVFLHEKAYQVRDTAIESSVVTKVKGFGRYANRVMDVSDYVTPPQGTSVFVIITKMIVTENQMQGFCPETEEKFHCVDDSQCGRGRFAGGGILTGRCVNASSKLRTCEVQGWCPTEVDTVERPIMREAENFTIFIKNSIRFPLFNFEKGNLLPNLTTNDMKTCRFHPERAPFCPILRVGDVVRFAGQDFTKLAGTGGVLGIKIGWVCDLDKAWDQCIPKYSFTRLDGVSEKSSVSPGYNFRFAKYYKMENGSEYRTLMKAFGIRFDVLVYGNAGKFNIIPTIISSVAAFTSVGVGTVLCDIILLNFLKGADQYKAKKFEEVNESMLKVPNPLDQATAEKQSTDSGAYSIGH
The data set is described as follows: Inhibitory activity against P2X3 in guinea pigs (electrophysiological method). Format: cell-based. Particulars: guinea pig P2X3, electrophysiological method.

A short description of data set [1]: Liver microsomal enzyme stability test. Format: in vitro ADME. Particulars: Human liver microsomes 0.5 mg/mL, 1 μM compound, 1 mM NADPH, 37° C.; for half-life at 1 μM: read-out: t1/2 (=0.693/k, min). The method, then:
An LC-MS/MS method, wherein A liquid phase method adopts a gradient elution method. Chromatographic Column: ACQUITY UPLC® BEH C18 (2.1 mm×50 mm, 1.7 μm); Flow Rate: 0.35 mL/min; Injection Volume: 1 μL (YS001), 3 μL (testosterone); Column Temperature: 40° C.; Automatic Sampler Temperature: 4° C.; Mobile Phase Compositions: mobile phase A: 0.1% formic acid water, and mobile phase B: acetonitrile. Mass spectrometry conditions adopt an ESI source, and positive ion and multiple reaction monitoring (MRM) modes were used for mass spectrometry analysis.
Liver microsome incubation samples were taken, in which 400 μL of an acetonitrile solution containing an internal standard (1 ng/mL loratadine) was added for a termination reaction. Even vortex mixing was conducted at 2,500 rpm. Centrifuging was conducted for 10 minutes at 20,000 rcf at 4° C. Supernatants were taken into clean lined tubes. Contents of prototype drugs were detected by LC-MS/MS.
Metabolic rate test: human liver microsomes were taken, unfrozen and thawed on ice, and gently shaken evenly. […] 80 μL of the above solution was pipetted, and pre-incubated for 5 minutes in a 37° C. water bath, then, 20 μL of a 5 mM NADPH solution was added, and incubating was conducted in a 37° C. water bath. […] After reaction for 0, 10, 30, 60, and 90 minutes, the reaction was terminated with 4 times the volume of acetonitrile (containing 1 ng/mL internal standard loratadine). Even vortex mixing was conducted. High-speed centrifuging was conducted for 10 minutes at 20,000 rcf at 4° C. Supernatants were taken for LC-MS/MS detection. Each incubation sample was subjected to a parallel test in triplicate. Positive control was metabolic samples of microsomes of corresponding species to a positive drug testosterone (1 μM). The reaction was terminated with 4 times the volume of acetonitrile (containing 1 ng/mL internal standard loratadine). Incubation time points were 0, 30, 60 minutes.
Analyst 1.6.3 software was used for data collecting. After integration parameters were optimized, target chromatographic peaks were automatically integrated, individual chromatographic peaks were not allowed to be integrated separately or manually, and retention time and a peak area were calculated. Data was collected by Analyst 1.6.3, and subjected to integration processing to obtain the retention time and the peak area, and a peak area ratio of an analyte to an internal standard was calculated. Then, Microsoft Office Excel was used for secondary processing to calculate a half-life period t1/2 and a clearance rate CLint thereof. A residual percentage (% Control) of tested compounds was calculated from a ratio of a concentration of a non-zero time point sample to a concentration of a zero-time sample. Ln (% Control) was plotted against incubation time and subjected to linear fitting. An elimination constant (ke, 1/min), an elimination half-life period (t1/2, min) and an in-vitro intrinsic clearance rate (CLint, μL/(mg·min)) of the tested compounds were calculated. T1/2=0.693/ke, CLint=ke/Cprotein (Note: ke is a slope, and Cprotein is a protein concentration.)
Background: Microsomes from liver hold many membrane-bound enzymes, among them those of drug oxidation.

This note sets out measurements from patent US12668589B2, “N-formamidopyrazoline derivative as P2X3 receptor antagonist and use thereof” (HANGZHOU WESTAN PHARMACEUTICAL TECHNOLOGY CO., LTD, priority 2020, dated 2026).

pIC50: −log10 of the molar value.

Take `CCOC(=O)N(C)[C@H]1CN(C(=O)N[C@H](C)c2cnc(C(F)(F)F)nc2)N=C1c1ccc(C)cc1` [Compound 4, (S)-4-(N-methyl-N-ethoxycarbonylamino)-3-(4-methylphenyl)-N-((R)-1-(2-(trifluoromethyl)pyrimidin-5-yl)ethyl)-4,5-dihydro-1H-pyrazol-1-carboxamide]: on rP2X3, the pIC50 (usually the negative decadic logarithm of the IC50, by convention in mol/L) was 6.78. For the same compound, the pIC50 on gpP2X3 was 6.38. Also, in data set [1], the “Clint, microsome (=k/Cprotein, μL × min^−1 × mg^−1 proteins)” value is on record as 3.8 μL × min^−1 × mg^−1 proteins; the “ke (=−slope, min^−1)” value stood at 0.0019 min⁻¹; the half-life at 1 μM was 364 min.

For the compound `Cc1ccc(C2=NN(C(=O)N[C@H](C)c3ccc(C(F)(F)F)nc3)C[C@@H]2N2CCOC2=O)cc1` [Compound 22], the pIC50 on rP2X3 is 7.05. At gpP2X3, this compound had a pIC50 of 6.53. In addition, in data set [1], the “Clint, microsome (=k/Cprotein, μL × min^−1 × mg^−1 proteins)” value is on record as 21.4 μL × min^−1 × mg^−1 proteins; the “ke (=−slope, min^−1)” value is 0.0107 min⁻¹; the half-life at 1 μM was 64.8 min.
